In patent US20220000848A1, “APPLICATION OF CHIDAMIDE” (SHENZHEN CHIPSCREEN BIOSCIENCES CO., LTD., priority 2018, published 2022) one finds CR, ORR and benefit rate data, which are given here for one molecule.

Assay [1] concerns relapsed or refractory follicular lymphoma (FL) accompanied with specific epigenetic regulatory gene mutation. The experiment in a line: Multicenter, single-arm, open clinical trial of Chidamide tablet in relapsed or refractory follicular lymphoma with CREBBP and/or EP300 mutation (pre-test). It is filed as in vivo, human. The conditions noted are these: 11 patients accompanied with epigenetic mutation B-NHL, oral 30 mg 2 times a week. As for the experimental part: (§1) Test drugs: Chidamide tablets: off-white tablets, 5 mg/tablet. Produced by Shenzhen Chipscreen Biosciences Co., Ltd.
Dosage regimen: 2 times a week, 30 mg each time, the interval of two administrations should not be less than 3 days (for example, on Monday and Thursday, Tuesday and Friday, Wednesday and Saturday, etc.). The administration was performed 30 minutes after breakfast, every 3 weeks was a treatment cycle. During the entire study, all subjects should unceasingly receive the treatment under study until the appearance of any one of the following conditions: progression of disease, intolerable adverse reaction, death, withdrawal from treatment, withdrawal of the informed consent or loss to follow-up. […]
4. Having CREBBP and/or EP300 specific genetic mutation that was confirmed by second-generation sequencing;
Patients were orally administrated with Chidamide according to the regimen, and the following safety- and efficacy follow-ups were performed at the specified times:
Follow-up interval: Efficacy assessment was carried out once every 6 weeks; and efficacy follow-up was performed at the end of treatment.
Efficacy evaluation means: Evaluation of lymph nodes and organ lesions, skin lesions was performed by imaging methods (CT or PET/CT), clinical examination, bone marrow puncture and biopsy. The imaging methods used for patients must be the same at all follow-up points. […]

The subject of assay [2] is relapsed or refractory B cell lymphoma. As to the kind of experiment: Phase II clinical trial of Chidamide monotherapy in relapsed or refractory B cell lymphoma. Format: in vivo, human. As to conditions: patients, oral 30 mg 2 times a week; 8 cases evaluated of 10 enrolled. The protocol:
as §1
Dosage regimen: 2 times a week, 30 mg each time, the interval of two administrations should not be less than 3 days (for example, on Monday and Thursday, Tuesday and Friday, Wednesday and Saturday, etc.). The administration was performed 30 minutes after breakfast, every 3 weeks was a treatment cycle. During the entire study, all subjects should unceasingly receive the treatment under study until the appearance of any one of the following conditions: progression of disease, intolerable adverse reaction, death, withdrawal from treatment, withdrawal of the informed consent or loss to follow-up.
Number of cases: Simon's optimal two-stage design was adopted, 72 patients were enrolled, and pathological subtypes included: follicular lymphoma (FL) grade 1, grade 2 or grade 3, marginal zone B-cell lymphoma (MALT), lymphoplasmacytic lymphoma (LPL), small lymphocyte B cell lymphoma (SLL), diffuse large B cell lymphoma (DLBCL).
The patients were orally administrated with Chidamide according to the aforementioned dosage regimen, and the safety- and efficacy evaluation were performed as required at the specified time.
Efficacy evaluation time: efficacy evaluation was performed once every 6 weeks. […]

In assay [1], `Nc1cc(F)ccc1NC(=O)c1ccc(CNC(=O)/C=C/c2cccnc2)cc1` [Chidamide] yielded a CR of 36.3% and an ORR of 72.7%. In assay [2], this molecule registered an ORR of 37.5% and a benefit rate of 62.5%.
